Measured values as given in patent publication US12397067B2, “Sulfur- or heavy atom-containing nanoparticles, methods of making same, and uses thereof” (Cornell University, priority 2017, dated 2025).

Key:
[1] = test system: BxPC3 pancreatic cancer cells; assay: Cell toxicity study, Presto Blue % viability; type: cell-based; details: 14 mM (10% of typical imaging concentration), 16 hours
Procedure: Cell toxicity studies. BxPC3 pancreatic cancer cells were maintained in RPMI 1640 supplemented with 10% FBS at 37° C. with 5% CO2. To measure effects of C′ dots or βME on cells, cells at ˜70% confluence were washed with PBS, exposed to trypsin, resuspended, and dispensed into 96-well tissue culture plates (20,000 cells per well). Cells were allowed to settle overnight, forming a monolayer ˜70-80% confluent. The medium was removed from each well, and replaced with medium supplemented with varying amounts of either 60% srC′ dots or βME, or with DMSO (carrier agent) alone as a control, as well as 1× Pen-Strep antibiotic. Cells were then incubated for 6 days (srC′ dots) or 16 hours ((ME). Following incubation, medium was removed, cells washed with fresh medium and then incubated for one hour with fresh medium and Presto Blue per the manufacturer's recommendations. The absorbance of the Presto Blue was determined at 570 nm (background 600 nm) using a Tecan Safire microplate reader. Absorption was compared to that of a blank (medium plus Presto Blue in unused wells) to determine % viability of remaining cells, with the DMSO control lane defined as 100% viability, and the empty wells defined as 0% viability. All experiments were performed in triplicate.

[2] = Singlet oxygen quantum yield determination with DPBF sensor, relative to methylene blue; details: FIG. 15b inset, 635 nm exposure
Procedure: Determination of singlet oxygen quantum yields, ΦΔ. Measurements were carried out in ethanol with DPBF as a singlet oxygen detector molecule. The DPBF band at 410 nm and λmax of each dye were absorption matched across a particle series. For measurements of effective ΦΔ samples were concentration matched. The spectra were exposed and measured in a 100 μL quartz cuvette (Starna). Samples were evenly exposed to a 635 nm solid-state laser at 3 mW/cm^2 and 1 cm spot size. Measurements were started immediately after DPBF addition. The decrease of the 410 nm DPBF band was measured at various exposure times and corrected against a baseline. ΦΔ for each sample was calculated by comparing to MB (ΦΔ=0.520 in ethanol) as a standard (see example calculations).
Example calculation to determine singlet oxygen quantum yield, ΦΔ. ΦΔ(sample) is determined relative to a standard with known ΦΔ(standard) using equation (5):
[formula] Here, we used methylene blue (MB) as a standard with known ΦΔ(MB)=0.520. With the slopes, m, from the linear fits through the values of the 410 nm DPBF absorption band at different exposure times, ΦΔ(sample) can be calculated. With the values from FIG. 15b inset m(ATTO647N 7.5% iC′ dots)=0.00314 s^−1 and m(MB)=0.02506 s^−1, Φ^Δ (ATT0647N 7.5% iC′ dots)=0.520([…])=0.065.

[3] = in ethanol; cited from earlier work

Row | SMILES | %-cell viability [1] | slope m of linear fit of ln relative DPBF absorption at 410 nm vs exposure time [2] | singlet oxygen quantum yield, ΦΔ (known value of standard) [3]
1 | OCCS [βME, β-mercaptoethanol] | substantial cell death |  | 
2 | CN(C)c1ccc2nc3ccc(=[N+](C)C)cc-3sc2c1 [MB, methylene blue] |  | 0.02506 s^−1 | 0.520
